Test results as given in patent publication US20210179577A1, “AROMATIC SULFONAMIDE DERIVATIVES FOR THE TREATMENT OF ISCHEMIC STROKE” (Bayer Aktiengesellschaft, priority 2017, published 2021).

target: T1, mouse P2X4 (Mus musculus, UniProt Q9JJX6); experiment: FLIPR assay, mouse P2X4 1321N1 Astrocytoma Cells; format: cell-based; conditions: agonist Mg-ATP at EC80
T1 construct: expressed in transfected cells; host or cells: 1321N1 astrocytoma cells
T1 sequence (Q9JJX6 1-388): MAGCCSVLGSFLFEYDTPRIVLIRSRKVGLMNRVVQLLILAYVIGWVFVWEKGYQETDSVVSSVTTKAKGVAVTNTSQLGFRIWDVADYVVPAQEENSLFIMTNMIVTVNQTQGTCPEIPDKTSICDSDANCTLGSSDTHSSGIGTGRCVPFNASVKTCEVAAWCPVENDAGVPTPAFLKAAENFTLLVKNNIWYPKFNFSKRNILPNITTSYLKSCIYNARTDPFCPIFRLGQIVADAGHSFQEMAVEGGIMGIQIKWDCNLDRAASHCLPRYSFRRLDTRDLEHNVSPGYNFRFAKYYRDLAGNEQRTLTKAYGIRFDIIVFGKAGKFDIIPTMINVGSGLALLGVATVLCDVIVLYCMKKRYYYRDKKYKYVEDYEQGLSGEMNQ
Experimental: 1321N1 Astrocytoma cells stably expressing human P2X4 or rat P2X4 or mouse P2X4 were plated in Collagen ITO-treated microplate at a seeding density of 10000 cells/well and incubated overnight. P2X4 function was assessed by measuring intracellular calcium changes using the calcium-chelating dye Fluo8-AM (Molecular Devices) on a fluorescent imaging plate reader (FLEX/FLIPR station; Molecular Devices). On the day of the assay, the medium was removed and the cells were incubated for 30 min at […] and 5% CO2 in 30 μL of dye buffer (Hank's balanced salt solution, 10 mM HEPES, 1.8 mM CaCl2, 1 mM MgCl2, 2 mM probenecid, 5 mM D-glucose monohydrate, 5 μM Fluo8-AM, pH=7.4). Compounds diluted in probenecid buffer (Hank's balanced salt solution, 10 mM HEPES, 1.8 mM CaCl2, 1 mM MgCl2, 2 mM probenecid, 5 mM D-glucose monohydrate, pH=7.4) were added in a volume of 10 μL and allowed to incubate for 30 min at room temperature. The final assay DMSO concentration was 0.25%. The agonist, Mg-ATP (Sigma), was added in a volume of 10 μL at a concentration representing the EC80 value. EC80 was determined to be 0.5 μM for human and mouse P2X4 and 5 μM for rat P2X4. The fluorescence was measured for an interval of 120 sec at 2 sec intervals. The excitation and emission wavelengths used to monitor fluorescence were 470-495 nm and 515-575 nm, respectively. The data was analyzed based on the increase in peak relative fluorescence units (RFU) compared to the basal fluorescence and the data was normalized to the agonist control. The compounds were tested in triplicates per plate and mean values were plotted in Excel XLFit to determine IC50 values, percentage of maximal inhibition and the Hill coefficients.

Point of comparison: `N#Cc1cnn(-c2ccc(NC(=O)Cc3ccccc3Cl)cc2S(N)(=O)=O)c1` [Example 39, 2-(2-Chlorophenyl)-N-[4-(4-cyano-1H-pyrazol-1-yl)-3-sulfamoylphenyl]acetamide], IC50 37 nM. Against it:
- NS(=O)(=O)c1cc(NC(=O)Cc2ccccc2Cl)ccc1-n1cc(C(F)(F)F)cn1 [Example 19, 2-(2-Chlorophenyl)-N-{3-sulfamoyl-4-[4-(trifluoromethyl)-1H-pyrazol-1-yl]phenyl}acetamide] — within 1.5-fold, 43 nM
- NS(=O)(=O)c1cc(NC(=O)Cc2ccccc2Cl)ccc1-c1cnn(C(F)F)c1 [Example 326, 2-(2-Chlorophenyl)-N-{4-[1-(difluoromethyl)-1H-pyrazol-4-yl]-3-sulfamoylphenyl}acetamide] — within 1.5-fold, 26 nM

Point of comparison: `NS(=O)(=O)c1cc(NC(=O)Cc2ccccc2Cl)ccc1-n1cc(C(F)(F)F)cn1` [Example 19, 2-(2-Chlorophenyl)-N-{3-sulfamoyl-4-[4-(trifluoromethyl)-1H-pyrazol-1-yl]phenyl}acetamide], “Mouse P2X4 1321N1 Astrocytoma Cells (FLIPR Assay) avg Efficacy” value 69%. Against it:
- N#Cc1cnn(-c2ccc(NC(=O)Cc3ccccc3Cl)cc2S(N)(=O)=O)c1 [Example 39, 2-(2-Chlorophenyl)-N-[4-(4-cyano-1H-pyrazol-1-yl)-3-sulfamoylphenyl]acetamide] — higher, 87%
- NS(=O)(=O)c1cc(NC(=O)Cc2ccccc2Cl)ccc1-c1cnn(C(F)F)c1 [Example 326, 2-(2-Chlorophenyl)-N-{4-[1-(difluoromethyl)-1H-pyrazol-4-yl]-3-sulfamoylphenyl}acetamide] — higher, 87%
